Assay results from patent US20090082429A1, “Antimicrobial Compositions and Methods of Use” (priority 2003, published 2009).
Values after ≈ are worked out from the molar mass of the structure shown. “Also recorded” adds a separate entry of the source. Like-named read-outs stand apart in the source and are kept apart here. Values belong to the compound of their own block, whether it stands above or below them.

Assays:
staphylococcal = conditions: stated or reported, no test in the patent; cited from earlier work
EMRSA-15 = assay: Minimum inhibitory concentration (MIC) testing in 96-well microtitre trays; assay type: cell-based, S. aureus
From the text: (§1) Reagents and bacterial strains: 3-O-(−)-epicatechingallate and (+)-catechin were provided by the Tokyo Food Techno Co., Tokyo, Japan. Octanoic acid and oxacillin were purchased from Sigma (Poole, United Kingdom). The acyl-(+)-catechin derivatives and octanoyl-(−)-epicatechin were synthesised as outlined below. S. aureus BB568 (COL-type strain that carries mecA and pT181) and BB551 (methicillin-sensitive) were provided by Professor B. Berger-Baechi. EMRSA-15 and EMRSA-16 were clinical isolates from the Royal Free Hospital, London. Strains of S. aureus can be considered resistant to methicillin in which growth occurs in the presence of 8 microgram/ml methicillin (National Committee for Clinical Laboratory Standards, 1990—Methods for dilution antimicrobial susceptibility tests for bacteria that grow aerobically (second edition). Document M7-A2. NCCLS, Villanova, Pa., U.S.A.).
(§2) S. aureus ATCC29213 was used as the standard.

EMRSA-16 [1] = assay: as above; assay type: cell-based, S. aureus
From the text: as §1, §2

S. aureus BB568 = assay: as above; assay type: cell-based
From the text: as §1, §2

S. aureus = assay: MIC testing, summary over the three strains tested; assay type: cell-based
From the text: as §1, §2

EMRSA-16 [2] = assay: Bacterial membrane damage (BacLight kit, SYTO 9/propidium iodide) and CFU after 10 min exposure; assay type: cell-based, S. aureus; conditions: for Membrane Effect % Control (BacLight) / Delta Log 10 (CFU/ml): 10 min exposure; for Delta Log 10 (CFU/ml): Log10 decrease vs control
Procedure: Bacterial membrane damage: EMRSA-16 was grown overnight in Mueller-Hinton broth at 37° C. The overnight culture was diluted 1:40 into fresh pre-warmed Mueller-Hinton broth and the diluted culture incubated at 37° C., with aeration (200 rpm), until the optical density at 600 nm (OD600) reached 0.7-0.8. The cells were recovered by centrifugation (10.000×g for 10 min), washed once with filtered-sterilized water, and resuspended to 1:10 the original volume in filter-sterilized water. The culture was further diluted 1:20 into water containing ethanol (1 vol %; the solvent was used to dissolve the compounds) or water containing the catechin. The cells were exposed to the compounds for 10 min (at room temperature and gentle shaking), after which a sample was removed for CFU determination and the remainder of the cells were recovered by centrifugation (10.000×g for 10 min). The cell pellet was washed once with water and then resuspended to an OD670 of 0.15.
Damage to the bacterial cytoplasmic membrane was determined with the reagents (SYTO 9 and propidium iodide) contained in the BacLight kit from Molecular Probes Europe BV (Leiden, The Netherlands). An equal mixture (4.5 microliter each) of SYTO 9 dye and propidium iodide was added to 3 ml of sample in a cuvette and the sample mixed by inversion of the cuvette three times. The sample was maintained in the dark for 15 min and the fluorescence of the two dyes was determined with a spectrofluorometer (Jacso FP-750). Both dyes were excited with a wavelength of 485 nm and the emission of SYTO 9 was read at 530 nm (Em1) and propidium iodide was read at 645 nm (Em2). The ratio of SYTO 9 to propidium iodide emissions (R=Em1/Em2) was expressed as a percentage of the control (BacLight value=[Rsample/Rcontrol]×100). The sample removed for CFU determination was serially diluted in 0.1M phosphate-buffered saline (pH 7.4) then plated onto nutrient agar. The number of colonies on the plates was recorded after 24 h incubation at 37° C. and the results expressed as a Log10 decrease in CFU/ml compared to the control sample.
Staphylococcal membrane damage: Damage to the staphylococcal cytoplasmic membrane was assessed by use of the BacLight kit (Molecular Probes Inc.). The kit makes use of two nucleic acid stains, SYTO-9 and propidium iodide, with different spectral properties and abilities to penetrate intact bacterial membranes. SYTO-9 penetrates both intact and damaged membranes while propidium iodide only penetrates damaged membranes. Cells with intact membranes stain fluorescent green while cells with damaged membranes stain fluorescent red. The ratios of green to red fluorescence, for EMRSA-16 exposed to test compounds, are expressed as a percentage of the control and are given in the table below.

S. aureus BB551 = assay: Electron microscopy, effect on cell wall morphology; assay type: cell-based; conditions: grown overnight in the presence of the compound; electron micrograph
Procedure: Electron microscopy: S. aureus BB551 was grown overnight at 37° C. in Mueller-Hinton broth in the absence and presence of either epicatechin-(−)-gallate or octanoyl-(+)-catechin. The cells were recovered by centrifugation and washed once in 0.1M phosphate-buffered saline, pH 7.4. Cells were fixed in 1.5% glutaraldehyde for at least 2 h at room temperature, treated with osmium tetroxide and embedded in epoxy resin. Sectioning and staining with uranyl acetate was followed by Reynolds' lead citrate. The ultrathin sections were viewed and photographed using a Philips 201 transmission electron microscope.

EMRSA-16 [3] = assay: Effect on bacterial growth (viable counts, CFU/ml); assay type: cell-based, S. aureus; conditions: for reduction in cell numbers: over six hours
Procedure: Effect on bacterial growth: EMRSA-16 was grown overnight in Mueller-Hinton broth at 37° C. The overnight culture as diluted 1:400 into 50 ml volumes of pre-warmed (37° C.) Mueller-Hinton broth containing various concentrations of contemplated compounds. The control flask contained ethanol (1 vol %). The flasks were incubated at 37° C. with aeration (200 rpm). At two-hour intervals samples were withdrawn from the flasks, serially diluted in 0.1M phosphate-buffered saline (pH 7.4) solutions, and plated onto nutrient agar (Oxoid). The number of colonies was recorded at 24 h incubation at 37° C. and expressed as the number of CFU/ml.

[4] = test system: Erythrocytes from defibrinated Horse blood; assay: Erythrocyte haemolysis; assay type: cell-based; conditions: 10 min
Procedure: Erythrocyte haemolysis: Erythrocytes from defibrinated Horse blood (Oxoid) were collected by centrifugation (6,000×g, 3 min) and washed three to four times in 10 mM Tris-HCI (pH 7.4) containing 0.9% NaCI. The erythrocytes were resuspended to 1% in the wash buffer and 200 microliter of cells was added to 1300 microliter of buffer containing the test compound. The sample was mixed gently for 10 min at room temperature and the intact erythrocytes were removed by centrifugation (6,000×g, 3 min). Haemolysis was evaluated by measuring the absorbance of the supernatant at 540 nm. Cells were added to buffer containing 0.5% NH4OH to give an indication of 100% lysis. The results were expressed as a percentage of absorbance reading for 100% lysis. Buffer containing only washed erythrocytes was used to assess the extent of lysis in the absence of the test compound.
Hemolysis: The amount hemoglobin released from horse blood erythrocytes after exposure to the compounds for 10 min was used to assess the effect of the compounds on eukaryotic membranes.

[5] = EMRSA-15; MIC of the compound itself; 35° C., 24 h
[6] = EMRSA-15; oxacillin MIC in the presence of the compound (tested at 0.25×MIC)
[7] = EMRSA-16; MIC of the compound itself; 35° C., 24 h
[8] = EMRSA-16; oxacillin MIC in the presence of the compound (tested at 0.25×MIC)
[9] = BB568; MIC of the compound itself; 35° C., 24 h
[10] = BB568; oxacillin MIC in the presence of the compound (tested at 0.25×MIC)
[11] = Staphylococcus aureus, 24 h, read-out: MIC Catechin
[12] = Staphylococcus aureus, 24 h; read-out: MIC Catechin

SMILES: CCCCCCCCCC=CCCCCC(=O)O (single isomer, unassigned) [palmitoleic acid isomer (C16:1delta6)]
- anti-staphylococcal activity (staphylococcal): anti-staphylococcal activity

- MIC Catechin (EMRSA-15; [5]): >32 MICROGRAM/ML
- MIC Oxacillin (EMRSA-15; [6]): 32 MICROGRAM/ML
- MIC Catechin (EMRSA-16 [1]; [7]): >32 MICROGRAM/ML
- MIC Oxacillin (EMRSA-16 [1]; [8]): 512 MICROGRAM/ML
- MIC Catechin (S. aureus BB568; [9]): 32 MICROGRAM/ML
- MIC Oxacillin (S. aureus BB568; [10]): 256 MICROGRAM/ML
SMILES: CCCCCCCCCCCCCCCCCC(=O)O[C@H]1Cc2c(O)cc(O)cc2O[C@@H]1c1ccc(O)c(O)c1 [3-O-staeoryl-(+)-catechin, 3-O-stearoyl-(+)-catechin]

- MIC Catechin (EMRSA-15; [5]): >256 MICROGRAM/ML
- MIC Oxacillin (EMRSA-15; [6]): 32 MICROGRAM/ML
- MIC Catechin (EMRSA-16 [1]; [7]): >256 MICROGRAM/ML
- MIC Oxacillin (EMRSA-16 [1]; [8]): 512 MICROGRAM/ML
- MIC (S. aureus; the three strains tested): > 256 microgram/ml
- MIC Catechin (S. aureus BB568; [9]): >256 MICROGRAM/ML
- MIC Oxacillin (S. aureus BB568; [10]): 256 MICROGRAM/ML
SMILES: Oc1cc(O)c2c(c1)O[C@H](c1ccc(O)c(O)c1)[C@@H](O)C2 [(+)-catechin]

SMILES: O=C(O[C@@H]1Cc2c(O)cc(O)cc2O[C@@H]1c1ccc(O)c(O)c1)c1cc(O)c(O)c(O)c1 [(−)-epicatechingallate, 3-O-(−)-epicatechingallate]
- effect on cell viability (EMRSA-16 [2]; 4× and 8×MIC, 10 min): little effect on cell viability
- membrane permeability (EMRSA-16 [2]; 4×MIC): 48%
- membrane permeability (EMRSA-16 [2]; 8×MIC): 64%
- Membrane Effect % Control (BacLight) (EMRSA-16 [2]; 512 mcg/ml): 48%
- Delta Log 10 (CFU/ml) (EMRSA-16 [2]; 512 mcg/ml): 0.0
- Membrane Effect % Control (BacLight) (EMRSA-16 [2]; 1024 mcg/ml): 64%
- Delta Log 10 (CFU/ml) (EMRSA-16 [2]; 1024 mcg/ml): 0.1
- effect on cell wall morphology (S. aureus BB551): pseudomulticellular aggregates with increased cell wall thickening
- MIC Oxacillin (EMRSA-15; [6]): 1 MICROGRAM/ML
- MIC (EMRSA-15; [11]): 128 µg/mL (≈ 289 µM)
- MIC Oxacillin (EMRSA-16 [1]; [8]): 1 MICROGRAM/ML
- MIC (EMRSA-16 [1]; [11]): 128 µg/mL (≈ 289 µM)
- reduction in cell numbers (EMRSA-16 [3]; 512 microgram/ml): 0.3 Log10
- reduction in cell numbers (EMRSA-16 [3]; 1024 microgram/ml): 0.85 Log10
- reduction in CFU/ml (EMRSA-16 [3]; 1024 microgram/ml, over the 24 h period): 5 Log10
- reduction in viable cell numbers (EMRSA-16 [3]; over the first two hour period, even at 8×MIC): did not give rise to a large reduction in viable cell numbers
- hemolysis ([4]; 4×MIC): did not give rise to hemolysis
- hemolysis ([4]; 8×MIC): 21%
- % Hemolysis ([4]; 512 mcg/ml): 6%
- % Hemolysis ([4]; 1024 mcg/ml): 21%
- MIC (S. aureus; Staphylococcus aureus): 64 to 128 µg/mL (≈ 145 to 289 µM)
- direct antistaphylococcal activity relative to (+)-catechin (S. aureus; greater activity than (+)-catechin): at least 4 fold
- MIC Oxacillin (S. aureus BB568; [10]): <1 MICROGRAM/ML
- MIC Oxacillin (S. aureus BB568; BB568; oxacillin MIC in the presence of the compound (tested at 0.25×MIC); listed as epicatechin gallate): less than 1 MICROGRAM/ML
- MIC (S. aureus BB568; Staphylococcus aureus, BB568, 24 h, read-out: MIC Catechin): 128 µg/mL (≈ 289 µM)

SMILES: O=C(O)c1cc(O)c(O)c(O)c1 [Gallic acid]
- anti-staphylococcal activity (staphylococcal): no anti-staphylococcal activity

- MIC Oxacillin (EMRSA-15; [6]): 32 MICROGRAM/ML
- MIC (EMRSA-15; [12]): 1020 µg/mL (≈ 7100 µM)
- MIC Oxacillin (EMRSA-16 [1]; [8]): 512 MICROGRAM/ML
- MIC (EMRSA-16 [1]; [12]): 1020 µg/mL (≈ 7100 µM)
- capacity to reduce the oxacillin MIC (S. aureus; tested at 0.25×MIC): two-fold
- MIC Oxacillin (S. aureus BB568; [10]): 256 MICROGRAM/ML
- MIC (S. aureus BB568; Staphylococcus aureus, BB568, 24 h; read-out: MIC Catechin): 1020 µg/mL (≈ 7100 µM)
SMILES: CCCCCCCC(=O)O [Octanoic acid]
- concentration giving significant membrane damage (EMRSA-16 [2]): > 1024 microgram/ml
- Membrane Effect % Control (BacLight) (EMRSA-16 [2]; 16 mcg/ml): 74%
- Delta Log 10 (CFU/ml) (EMRSA-16 [2]; 16 mcg/ml): −0.1
- Membrane Effect % Control (BacLight) (EMRSA-16 [2]; 32 mcg/ml): 75%
- Delta Log 10 (CFU/ml) (EMRSA-16 [2]; 32 mcg/ml): 0.1
- Membrane Effect % Control (BacLight) (EMRSA-16 [2]; 64 mcg/ml): 2%
- Delta Log 10 (CFU/ml) (EMRSA-16 [2]; 64 mcg/ml): >7.0
- hemolysis ([4]; 2×MIC): complete hemolysis
- % Hemolysis ([4]; horse, 16 mcg/ml, pH 7.4): 3%
- % Hemolysis ([4]; horse, 32 mcg/ml, pH 7.4): 4%
- % Hemolysis ([4]; horse, 64 mcg/ml, pH 7.4): 100%
- direct activity against S. aureus (S. aureus; result in words): no direct activity; also recorded: not active

SMILES: Cc1onc(-c2ccccc2)c1C(=O)N[C@@H]1C(=O)N2[C@@H]1SC(C)(C)[C@@H]2C(=O)O [Oxacillin, oxacillin]
- MIC (EMRSA-15; Staphylococcus aureus; EMRSA-15; oxacillin alone; read-out: MIC Oxacillin): 32 µg/mL (≈ 79.7 µM)
- MIC (EMRSA-16 [1]; Staphylococcus aureus; EMRSA-16; oxacillin alone; read-out: MIC Oxacillin): 512 µg/mL (≈ 1280 µM)
- MIC (S. aureus BB568; Staphylococcus aureus; BB568; oxacillin alone; read-out: MIC Oxacillin): 256 µg/mL (≈ 638 µM)

SMILES: CCCCCCCCCCCC(=O)O [dedecanoic acid, dedecanoic acid (lauric acid) (C12:0)]
- anti-staphylococcal activity (staphylococcal): anti-staphylococcal activity

SMILES: CCCCC/C=C\C/C=C\CCCCCCCC(=O)O [linoleic acid, linoleic acid (C18:8)]
- anti-staphylococcal activity (staphylococcal): anti-staphylococcal activity
